Our source for the activity change, negative = cytotoxicity values is PubChem BioAssay AID624367 (Broad Institute, 2012).

Molecules are shown by their SMILES. Activity calls are given as the source filed them. No rule for the calls is given here.

The nature of one assay: viability loss in LCL cells – cell-based, plate reader, dry powder, set 2, cytotoxicity control, dose response (AID 624367). The conditions noted are these: Lymphoblastoid cell line (LCL) cytotoxicity, plate reader; at 30 µM (top of the series).
Regarding `Cc1noc(C)c1S(=O)(=O)Nc1ccc2c(c1)C(=O)N([C@@H](C)CO)C[C@@H](C)[C@H](CN(C)Cc1ccc(C(F)(F)F)cc1)OCCCC[C@H](C)O2`, the activity change, negative = cytotoxicity was -0.638% (inactive). As to `Cc1noc(C)c1S(=O)(=O)Nc1ccc2c(c1)C(=O)N([C@@H](C)CO)C[C@H](C)[C@H](CN(C)Cc1ccc(C(F)(F)F)cc1)OCCCC[C@@H](C)O2`, the activity change, negative = cytotoxicity is -7.54% (inactive). On to `C[C@H](NC(=O)C[C@@H]1C=C[C@H](NC(=O)Cc2ccccn2)[C@H](CO)O1)c1ccccc1`, for which the activity change, negative = cytotoxicity was 6.34% (inactive).

The same assay, now with this note: Lymphoblastoid cell line (LCL) cytotoxicity, plate reader; at 35 µM (top of the series).
Regarding `C[C@@H]1CN([C@H](C)CO)S(=O)(=O)c2ccc(C#C[C@@H](C)O)cc2O[C@H]1CN(C)Cc1ccc(-c2ccccc2)cc1`, the activity change, negative = cytotoxicity was -3.17% (inactive).

Turning to `Cc1noc(C)c1S(=O)(=O)Nc1ccc2c(c1)C(=O)N([C@H](C)CO)C[C@H](C)[C@@H](CN(C)Cc1ccc(C(F)(F)F)cc1)OCCCC[C@@H](C)O2`, the activity change, negative = cytotoxicity is -2.6% (inactive). For the compound `CCC(=O)N1Cc2cc(C(=O)Nc3nccs3)nc(-c3cccc(-c4ccccc4OC)c3)c2[C@H]1CCO`, the activity change, negative = cytotoxicity was -2.48% (inactive). Regarding `C[C@@H](NC(=O)C[C@H]1C[C@@H]2c3cc(NC(=O)c4cccnc4)ccc3O[C@@H]2[C@@H](CO)O1)c1ccccc1`, the activity change, negative = cytotoxicity was -0.579% (inactive). Regarding `CO[C@H]1CN(C)C(=O)c2ccc(NC(=O)C3CC3)cc2OC[C@H](C)N(C(=O)c2ccccn2)C[C@H]1C`, the activity change, negative = cytotoxicity was -0.57% (inactive). Same read-out and setting: in the case of `CN(C)c1ccc2c(c1)[C@@H]1C[C@@H](CC(=O)NCc3ccc(Oc4ccccc4)cc3)O[C@H](CO)[C@@H]1O2` it was 4.68% (inactive); in that of `O=C(Cc1ccccn1)NCC[C@@H]1CC[C@H](NC(=O)Nc2ccc(Cl)cc2)[C@H](CO)O1`, 7.74% (inactive). For `C[C@@H]1CN([C@@H](C)CO)S(=O)(=O)c2ccc(C#C[C@@H](C)O)cc2O[C@H]1CN(C)Cc1ccc(-c2ccccc2)cc1`, the activity change, negative = cytotoxicity was -1.38% (inactive). With `C[C@H](CO)N1C[C@H](C)[C@@H](CN(C)C(=O)Nc2ccc(F)cc2)OCc2ccccc2-c2c(n(C)c3ccccc23)C1=O`, the activity change, negative = cytotoxicity is -2.81% (inactive). Same read-out and setting: under `O=C(Cc1ccccn1)NCC[C@@H]1CC[C@H](NC(=O)Nc2ccc(Cl)cc2)[C@@H](CO)O1` stands 6.35% (inactive); under `C[C@H](NC(=O)C[C@@H]1C=C[C@@H](NC(=O)Cc2ccccn2)[C@@H](CO)O1)c1ccccc1`, -1.09% (inactive); under `C[C@H]1CN([C@@H](C)CO)C(=O)c2c(c3ccccc3n2C)-c2ccccc2CO[C@@H]1CN(C)C(=O)Nc1ccc(F)cc1`, 1.36% (inactive).

For `COc1cccc(S(=O)(=O)N(C)C[C@@H]2Oc3cc(C4=CCCCC4)ccc3S(=O)(=O)N([C@H](C)CO)C[C@H]2C)c1`, the activity change, negative = cytotoxicity was 7.75% (inactive).

Consider `O=C(Cc1ccccn1)NCC[C@H]1CC[C@@H](NC(=O)Nc2ccc(Cl)cc2)[C@@H](CO)O1`, for which the activity change, negative = cytotoxicity was -2.19% (inactive). Still for that read-out and setting: under `CS(=O)(=O)Nc1ccc2c(c1)[C@@H]1C[C@H](CC(=O)NCC3CC3)O[C@H](CO)[C@@H]1O2` stands 1.53% (inactive); under `C[C@H]1CN([C@@H](C)CO)C(=O)Cc2cc(NC(=O)Cc3ccccc3)ccc2O[C@H]1CN(C)Cc1ccc(C(F)(F)F)cc1`, 2.21% (inactive).

Take `Cc1ccc(S(=O)(=O)N(C)C[C@H]2Oc3cc(C#Cc4ccncc4)ccc3S(=O)(=O)N([C@@H](C)CO)C[C@H]2C)cc1`: the activity change, negative = cytotoxicity was -6.9% (inactive). The same measure, in the same setting: under `Cc1noc(C)c1S(=O)(=O)Nc1ccc2c(c1)C(=O)N([C@@H](C)CO)C[C@H](C)[C@@H](CN(C)Cc1ccc(C(F)(F)F)cc1)OCCCC[C@H](C)O2` stands -1.76% (inactive); under `O=C(C[C@@H]1CC[C@@H]2[C@H](COC[C@@H](O)CN2Cc2ccc3c(c2)OCO3)O1)Nc1ccc(-c2ccccc2)cc1`, -8.48% (inactive). Take `C[C@H](NC(=O)C[C@H]1C=C[C@H](NC(=O)Cc2ccccn2)[C@@H](CO)O1)c1ccccc1`: the activity change, negative = cytotoxicity is 0.993% (inactive).

Take `C[C@@H](NC(=O)C[C@@H]1C=C[C@@H](NC(=O)Cc2ccccn2)[C@@H](CO)O1)c1ccccc1`: the activity change, negative = cytotoxicity was -0.658% (inactive).

As for `N#C[C@H]1N[C@H](CO)[C@H]1c1ccc(C#Cc2ccccc2F)cc1`, the activity change, negative = cytotoxicity is -8.35% (inactive). For the compound `COc1cccc(S(=O)(=O)N(C)C[C@H]2Oc3cc(C4=CCCCC4)ccc3S(=O)(=O)N([C@@H](C)CO)C[C@@H]2C)c1`, the activity change, negative = cytotoxicity was 4.96% (inactive). As for `Cc1noc(C)c1S(=O)(=O)Nc1ccc2c(c1)C(=O)N([C@H](C)CO)C[C@H](C)[C@H](CN(C)Cc1ccc(C(F)(F)F)cc1)OCCCC[C@@H](C)O2`, the activity change, negative = cytotoxicity is -2.12% (inactive). Turning to `CC(=O)N(C)C[C@@H]1Oc2cc(C#Cc3ccc(F)cc3)ccc2S(=O)(=O)N([C@H](C)CO)C[C@H]1C`, the activity change, negative = cytotoxicity is 1.69% (inactive). Regarding `O=C(C[C@@H]1C[C@H]2c3cc(NS(=O)(=O)c4ccc(F)cc4)ccc3O[C@H]2[C@H](CO)O1)NCc1ccc(Oc2ccccc2)cc1`, the activity change, negative = cytotoxicity was -1.34% (inactive).

Regarding `C[C@@H]1CN([C@H](C)CO)C(=O)Cc2cc(NC(=O)Cc3ccccc3)ccc2O[C@H]1CN(C)Cc1ccc(C(F)(F)F)cc1`, the activity change, negative = cytotoxicity was 3.94% (inactive). Consider `C[C@H](NC(=O)C[C@H]1C=C[C@@H](NC(=O)Cc2ccccn2)[C@@H](CO)O1)c1ccccc1`, for which the activity change, negative = cytotoxicity was 6.04% (inactive). On to `COc1ccccc1C#Cc1ccc2c(c1)O[C@H](CN(C)Cc1cccnc1)[C@@H](C)CN([C@@H](C)CO)S2(=O)=O`, for which the activity change, negative = cytotoxicity was -6.79% (inactive). Still for that read-out and setting: under `C[C@@H](NC(=O)C[C@H]1C=C[C@H](NC(=O)Cc2ccccn2)[C@H](CO)O1)c1ccccc1` stands 1.04% (inactive). Still for that read-out and setting: in the case of `Cc1noc(C)c1S(=O)(=O)Nc1ccc2c(c1)C(=O)N([C@H](C)CO)C[C@H](C)[C@H](CN(C)Cc1ccc(C(F)(F)F)cc1)OCCCC[C@H](C)O2` it was -5.76% (inactive); in that of `C[C@H](NC(=O)C[C@H]1C=C[C@H](NC(=O)Cc2ccccn2)[C@H](CO)O1)c1ccccc1`, 10.5% (inactive); in that of `C[C@@H]1CN([C@H](C)CO)S(=O)(=O)c2ccc(/C=C/c3ccccc3)cc2O[C@H]1CN(C)C(=O)NC1CCCCC1`, -0.754% (inactive).

Regarding `Cc1cc(C(=O)Nc2ccc3c(c2)C(=O)N(C)[C@H]2CC[C@H](CC(=O)NCc4ccc(-c5ccccc5)cc4)O[C@H]2CO3)no1`, the activity change, negative = cytotoxicity was -10.2% (inactive). As to `C[C@@H](NC(=O)C[C@@H]1C=C[C@H](NC(=O)Cc2ccccn2)[C@H](CO)O1)c1ccccc1`, the activity change, negative = cytotoxicity is 6.45% (inactive).

As to `O=C(C[C@H]1CC[C@@H]2[C@H](COC[C@H](O)CN2Cc2ccc(Oc3ccccc3)cc2)O1)N1CCc2ccccc2C1`, the activity change, negative = cytotoxicity is -13.9% (inactive). Turning to `C/C=C/c1cccc(-c2nc(C(=O)Nc3nccs3)cc3c2[C@@H](CCO)N(C(=O)NC(C)C)C3)c1`, the activity change, negative = cytotoxicity is 3.79% (inactive). Regarding `COc1cccc(S(=O)(=O)N(C)C[C@@H]2Oc3cc(C4=CCCCC4)ccc3S(=O)(=O)N([C@@H](C)CO)C[C@H]2C)c1`, the activity change, negative = cytotoxicity was 0.436% (inactive).

`O=C(C[C@@H]1C[C@H]2c3cc(NS(=O)(=O)c4ccc(F)cc4)ccc3O[C@H]2[C@@H](CO)O1)NC1CCCCC1`: the activity change, negative = cytotoxicity was 5.66% (inactive). Still for that read-out and setting: under `CO[C@@H]1CN(C)C(=O)c2ccc(NC(C)=O)cc2OC[C@@H](C)N(Cc2ccccc2F)C[C@H]1C` stands 2.23% (inactive); under `O=C(Cc1ccccn1)NCC[C@H]1CC[C@H](NC(=O)Nc2ccc(Cl)cc2)[C@@H](CO)O1`, 3.54% (inactive). On to `C[C@H](NC(=O)C[C@H]1C[C@@H]2c3cc(NC(=O)c4cccnc4)ccc3O[C@@H]2[C@@H](CO)O1)c1ccccc1`, for which the activity change, negative = cytotoxicity was -1.74% (inactive).

As to `C[C@H]1CN([C@@H](C)CO)C(=O)c2cc(C#Cc3ccccc3F)cnc2O[C@@H]1CN(C)C(=O)C1CCCCC1`, the activity change, negative = cytotoxicity is 8.49% (inactive). `O=C(C[C@@H]1CC[C@H]2[C@@H](COC[C@H](O)CN2Cc2ccc(Oc3ccccc3)cc2)O1)N1CCc2ccccc2C1`: the activity change, negative = cytotoxicity is -13.4% (inactive).

For `C[C@H](NC(=O)C[C@@H]1C=C[C@@H](NC(=O)Cc2ccccn2)[C@H](CO)O1)c1ccccc1`, the activity change, negative = cytotoxicity is 3.26% (inactive). Same read-out and setting: in the case of `COc1ccccc1CNC(=O)C[C@@H]1C[C@H]2c3cc(NC(=O)c4ccc5c(c4)OCO5)ccc3O[C@H]2[C@H](CO)O1` it was -4.54% (inactive); in that of `C[C@@H](NC(=O)C[C@@H]1C=C[C@H](NC(=O)Cc2ccccn2)[C@@H](CO)O1)c1ccccc1`, -4.44% (inactive). The same measure, in the same setting: under `Cc1noc(C)c1S(=O)(=O)Nc1ccc2c(c1)C(=O)N([C@@H](C)CO)C[C@H](C)[C@H](CN(C)Cc1ccc(C(F)(F)F)cc1)OCCCC[C@H](C)O2` stands -5.45% (inactive).

Turning to `CCCNC(=O)c1cc2c(c(-c3cccc(-c4cccc(F)c4)c3)n1)[C@H](CCO)N([S@@](=O)C(C)(C)C)C2`, the activity change, negative = cytotoxicity is -1.43% (inactive). Consider `Cc1cc(C(=O)Nc2ccc3c(c2)C(=O)N(C)[C@H]2CC[C@@H](CC(=O)NCc4ccc(-c5ccccc5)cc4)O[C@H]2CO3)no1`, for which the activity change, negative = cytotoxicity was -17.8% (inactive).

`CO[C@H](CN(C)S(=O)(=O)c1cccc(Cl)c1)[C@@H](C)CN([C@H](C)CO)S(=O)(=O)c1ccc(Cl)cc1`: the activity change, negative = cytotoxicity is -9.42% (inactive).

Take `COc1cccc(C#Cc2ccc([C@@H]3[C@@H](C#N)N(C(=O)c4ccccn4)[C@@H]3CO)cc2)c1`: the activity change, negative = cytotoxicity is 7.55% (inactive).
